{"source": "paper PMC7352342", "about": "“Inhibition of Patched Drug Efflux Increases Vemurafenib Effectiveness against Resistant Braf^V600E Melanoma” (Cancers, 2020)", "key": {"[1]": {"assay": "Metabolic stability with mice liver microsomes and NADPH", "format": "in vitro ADME", "procedure": "A 10 µL aliquot of the sPAH stock solution (10 mM in DMSO) was diluted in 990 µL of a mixture of acetonitrile and water. This solution was then diluted 100-fold in phosphate buffer containing mice liver microsomes (0.5 mg/mL), 1 mM NADPH, and 3 mM MgCl2, and incubated at 37 °C. After 2, 10, 20, 40, and 60 min, 70 µL aliquots were collected and mixed with 70 µL acetonitrile at 0 °C. Equivalent experiments were performed without NADPH in order to identify chemical instability or enzymatic process not depending on NADPH, and with testosterone as a positive control. The enzymatic reaction was stopped by addition of acetonitrile. Samples were analyzed by LC–MS/MS on an UHPLC LC–MS 8030 (Shimazu, Kyoto, Japan).\nFor metabolite identification, 50 µM of sPAH were incubated with mice liver microsomes and NADPH. Two samples were prepared: one in which acetonitrile was added immediately (t0) and one in which acetonitrile was added after 30 min. After centrifugation for 5 min at 15,000× g, 2 samples of each supernatant were analyzed by LC–MS/MS on a LC–MS 8030 (Shimazu, Kyoto, Japan) and detected by selected ion monitoring (SIM)."}, "A375 cells": {"tested_on": "A375 cells", "assay": "Wound-healing assay, A375 cells", "format": "cell-based, human", "details": "48 h after wounding, sPAH added to vemurafenib", "procedure": "(§1) Once cells were confluent in 24-well plates, a wound was created using a p200 tip. Two pictures were taken at two different points of each well immediately after wounding, and 48 h after wounding. Images were taken with Leica DM IRB (5×). The width of the wound was measured using ImageJ software and reported as percentage final wound width/initial wound width."}, "WM9R cells": {"tested_on": "WM9R cells", "assay": "Wound-healing assay, WM9R cells", "format": "cell-based", "details": "48 h after wounding, sPAH added to vemurafenib", "procedure": "as §1"}, "human Ptch1": {"molecular_target": "T1, human Ptch1 (Homo sapiens, UniProt Q13635)", "T1 construct": "made in house; host or cells: yeast (membrane preparation)", "T1 sequence (Q13635 1-1447)": "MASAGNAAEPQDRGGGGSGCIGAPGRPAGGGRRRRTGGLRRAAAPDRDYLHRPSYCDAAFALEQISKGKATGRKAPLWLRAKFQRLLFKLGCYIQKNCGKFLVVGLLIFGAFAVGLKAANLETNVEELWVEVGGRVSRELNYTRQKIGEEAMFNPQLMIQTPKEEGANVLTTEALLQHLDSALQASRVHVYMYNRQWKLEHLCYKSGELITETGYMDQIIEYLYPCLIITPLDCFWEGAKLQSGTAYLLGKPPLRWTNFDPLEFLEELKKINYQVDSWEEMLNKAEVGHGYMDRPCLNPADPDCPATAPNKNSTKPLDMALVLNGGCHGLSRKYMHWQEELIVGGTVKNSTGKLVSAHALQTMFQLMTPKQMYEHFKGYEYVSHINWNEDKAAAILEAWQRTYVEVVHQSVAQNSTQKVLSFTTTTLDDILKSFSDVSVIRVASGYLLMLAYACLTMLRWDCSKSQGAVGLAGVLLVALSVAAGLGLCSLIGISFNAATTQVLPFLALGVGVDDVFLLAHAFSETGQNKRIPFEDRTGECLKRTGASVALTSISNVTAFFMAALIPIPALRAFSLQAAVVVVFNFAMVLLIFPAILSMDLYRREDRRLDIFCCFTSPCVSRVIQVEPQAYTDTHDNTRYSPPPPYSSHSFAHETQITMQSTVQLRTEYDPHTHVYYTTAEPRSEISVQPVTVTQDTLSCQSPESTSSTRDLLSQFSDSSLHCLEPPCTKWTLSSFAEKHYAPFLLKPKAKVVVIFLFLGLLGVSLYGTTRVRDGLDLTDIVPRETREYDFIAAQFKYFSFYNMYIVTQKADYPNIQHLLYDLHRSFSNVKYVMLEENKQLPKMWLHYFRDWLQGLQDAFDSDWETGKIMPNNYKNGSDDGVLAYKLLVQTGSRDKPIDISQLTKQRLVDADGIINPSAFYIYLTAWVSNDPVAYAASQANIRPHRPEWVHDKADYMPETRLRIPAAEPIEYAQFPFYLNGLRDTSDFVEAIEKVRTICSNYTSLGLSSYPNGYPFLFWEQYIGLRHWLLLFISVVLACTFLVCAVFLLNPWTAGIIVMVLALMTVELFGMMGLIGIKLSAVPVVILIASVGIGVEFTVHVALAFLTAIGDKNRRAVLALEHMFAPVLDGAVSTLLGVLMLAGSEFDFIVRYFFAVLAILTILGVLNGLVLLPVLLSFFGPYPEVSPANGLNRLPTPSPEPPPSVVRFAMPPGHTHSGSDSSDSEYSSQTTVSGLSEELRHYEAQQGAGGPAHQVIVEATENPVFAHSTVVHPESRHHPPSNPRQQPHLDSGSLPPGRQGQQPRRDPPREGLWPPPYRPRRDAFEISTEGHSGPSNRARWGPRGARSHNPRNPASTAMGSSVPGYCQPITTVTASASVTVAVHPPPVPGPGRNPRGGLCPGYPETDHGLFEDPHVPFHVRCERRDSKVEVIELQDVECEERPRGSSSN", "assay": "Microscale thermophoresis on membranes from yeast expressing human Ptch1", "format": "binding", "details": "membranes from yeast expressing hPtch1; MST; mean of 3 experiments", "procedure": "Microscale thermophoresis (MST) is a biophysical technique that measures the strength of the interaction between two molecules by detecting a variation in the fluorescence signal of a fluorescently labeled target as a result of an IR-laser induced temperature change. The range of the variation in the fluorescence signal correlates with the binding of a ligand to the fluorescent target.\nMembranes from yeast expressing human Ptch1 or human Smoothened were incubated at 30 µg/mL with 20 nM of the fluorescent dye NT-647 2nd gen (NanoTemper Technologies, München, Germany) to label the His-tag present at the c-terminus of both proteins. […] The fluorescence within the capillary is excited and detected through the same objective. […] The MST response of fluorescent proteins within the temperature gradient is detected. After activation of the IR laser, a decrease in fluorescence is observed which corresponds to temperature-related intensity change (TRIC) triggered by the fast temperature change and thermophoretic movement of the fluorescent proteins out of the heated sample volume. […] For analysis, the change in MST signal is expressed as the change in the normalized fluorescence (Fnorm), which is defined as F1/F0. […] The sPAH Kd was determined for 3 independent experiments."}}, "note": "“And” between values parts separate entries of the source, which are not always exact repeats. Equal values may be shown once.", "data": [{"smiles": "COc1cc(C)c(CC/C(C)=C/Cc2cc(O)ccc2O)c(C)c1C", "note": "[sPAH, Panicein A hydroquinone]", "values": [{"measurement": "metabolic fate (LC-MS/MS)", "setting": "[1]; 50 µM, mice liver microsomes and NADPH, 30 min", "value": "rapidly oxidized in its quinone form"}, {"measurement": "half-life at 1 µM", "setting": "[1]; mouse, liver microsomes, mice microsomes and NADPH, 37 °C", "value": 1, "unit": "min"}, {"measurement": "effect on vemurafenib efficacy against cell migration", "setting": "A375 cells", "value": "increased vemurafenib efficacy"}, {"measurement": "effect on vemurafenib efficacy against cell migration", "setting": "WM9R cells", "value": "the same effect was observed"}, {"measurement": "Kd", "setting": "human Ptch1", "value": "~7 µM and 7.2 µM"}]}]}
